The text below walks through data of US20160296529A1, “AMINOTRIAZOLOPYRIDINE FOR USE IN THE TREATMENT OF INFLAMMATION, AND PHARMACEUTICAL COMPOSITIONS THEREOF” (priority 2012, published 2016).

Test [1] concerns IL-6-induced STAT1 phosphorylation (JAK1-dependent pathway). Kind of test: Human whole blood assay (hWBA), IL-6 stimulation, phospho-STAT1 on CD4+ cells. The class given is cell-based. Here is the method:
A flow cytometry analysis was performed to establish JAK1 over JAK2 compound selectivity ex vivo using human whole blood. Therefore, blood is taken from human volunteers who gave informed consent. Blood is then equilibrated for 30 min at 37° C. under gentle rocking, then aliquoted in Eppendorf tubes. Compound is added at different concentrations and incubated at 37° C. for 30 min under gentle rocking and subsequently stimulated for 20 min at 37° C. under gentle rocking with interleukin 6 (IL-6) for JAK1-dependent pathway stimulation or GM-CSF for JAK2-dependent pathway stimulation. Phospho-STAT1 and phospho-STAT5 are then evaluated using FACS analysis. […]
Cells were then washed once with 1×PBS and analyzed on a FACSCanto II flow cytometer (BD Biosciences).
50,000 total events are counted and Phospho-STAT1 positive cells are measured after gating on CD4^+ cells, in the lymphocyte gate. Data are analyzed using the FACSDiva software and the percentage of inhibition of IL-6 stimulation calculated from the percentage of positive cells for phospho-STAT1 on CD4+ cells.
A flow cytometry analysis was performed to establish JAK1 over JAK2 compound selectivity ex vivo using human whole blood. […] Phospho-STAT1 (for IL-6- and IFNα-stimulated cells) and phospho-STAT5 (for IL-2- and GM-CSF-stimulated cells) levels are then evaluated using FACS analysis. […]

The target of test [2] is T1, Recombinant human JAK3 catalytic domain (Homo sapiens, UniProt P52333).
T1 construct: amino acids 795-1124; catalog number 08-046; purchased Carna Biosciences 08-046
Kind of test: JAK3 inhibition assay. The class given is biochemical. Here is the method:
Recombinant human JAK3 catalytic domain (amino acids 795-1124; catalog number 08-046) was purchased from Carna Biosciences. 0.5 ng JAK3 protein was incubated with 2.5 μg polyGT substrate (Sigma catalog number P0275) in kinase reaction buffer (25 mM Tris pH 7.5, 0.5 mM EGTA, 10 mM MgCl2, 2.5 mM DTT, 0.5 mM Na3VO4, 5 mM b-glycerophosphate, 0.01% Triton X-100, 1 μM non-radioactive ATP, 0.25 μCi ^33P-gamma-ATP (Perkin Elmer, catalog number NEG602K001MC) final concentrations) with or without 5 μL containing test compound or vehicle (DMSO, 1% final concentration), in a total volume of 25 μL, in a polypropylene 96-well plate (Greiner, V-bottom). After 45 min at 30° C., reactions were stopped by adding 25 μL/well of 150 mM phosphoric acid. […] 40 μL/well of Microscint-20 was added, the top of the plates was sealed and readout was performed using the Topcount (Perkin Elmer). Kinase activity was calculated by subtracting counts per min (cpm) obtained in the presence of a positive control inhibitor (10 μM staurosporine) from cpm obtained in the presence of vehicle. The ability of a test compound to inhibit this activity was determined as:
Percentage inhibition=((cpm determined for sample with test compound present−cpm determined for sample with positive control inhibitor) divided by (cpm determined in the presence of vehicle−cpm determined for sample with positive control inhibitor))*100. […]

Several values for one entry are separate records, joined by “and”; a condition that tells them apart may be missing. Equal values may be shown once. Read-outs that look alike come from different tables or passages of the source.

T1 sequence (P52333 795-1124): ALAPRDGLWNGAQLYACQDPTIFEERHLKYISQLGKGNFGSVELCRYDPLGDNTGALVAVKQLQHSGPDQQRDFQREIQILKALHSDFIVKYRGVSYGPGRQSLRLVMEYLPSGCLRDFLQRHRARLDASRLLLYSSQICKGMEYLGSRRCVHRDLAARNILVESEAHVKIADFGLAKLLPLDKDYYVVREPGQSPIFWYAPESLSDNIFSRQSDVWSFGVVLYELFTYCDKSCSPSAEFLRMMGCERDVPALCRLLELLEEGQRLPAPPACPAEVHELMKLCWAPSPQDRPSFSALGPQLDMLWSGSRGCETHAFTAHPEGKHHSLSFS

With `Nc1nc2cccc(-c3ccc(CN4CCS(=O)(=O)CC4)cc3)n2n1` [Formula I, 5-[4-(1,1-Dioxothiomorpholin-4-ylmethyl)-phenyl]-[1,2,4]triazolo[1,5-a]pyridin-2-ylamine], the IC50 in test [1] (human whole blood, 6 different donors) is 11.9 µM; in test [2] (average, read-out: IC50 (average)) it was > 3.61 µM; in test [2] (individual determinations, read-out: IC50), 2.5 µM and 3.2 µM and 3.37 µM and > 4 µM (5×) and > 3.33 µM (2×) and 3.94 µM. The “selectivity for JAK1 over JAK2” value in test [1] (in vitro whole blood selectivity assay (IL-6 vs GM-CSF)) is reported as “over 10 fold”.

In general, IC50 refers to the point on the concentration scale where inhibition reaches its midpoint.
